Measured values as given in patent publication US20070191402A1, “Method of searching substrate having antidiabetic activity” (KYOWA HAKKO KOGYO CO., LTD., priority 2002, published 2007).

Columns and labels:
[1] = tested on: pancreatic β cell (MIN6 cell); assay: Inhibition of binding of [3H]-labeled Compound 16 to pancreatic β cell; parameters: species or system murine; settings: test compound 1 μmol/l; 10 nmol/l [3H]-labeled Compound 16; MIN6 cell, 4° C.
Experimental: MIN6 cell cultured to almost confluence in a 24-well plate for cell culture (manufactured by Corning) was washed twice with KRH buffer (119 mmol/l NaCl, 4.74 mmol/KCl, 2.54 mmol/l calcium chloride (CaCl2), 1.19 mmol/l magnesium sulfate (MgSO4), 1.19 mmol/l potassium dihydrogen phosphate (KH2PO4), 10 mmol/l HEPES, 2 mmol/l glucose, 0.1 w/v % bovine serum albumin (BSA), pH 7.3). Subsequently, the KRH buffer was added at 1 ml per well, for preincubation at 37° C. for 45 minutes. After preincubation, the supernatant was discarded, and 0.15 ml of the KRH buffer, […] at 4° C. for one hour or longer until the reaction reached equilibrium. Subsequently, the cell was washed twice using the KRH buffer. The KRH buffer was added at 2 ml per well, which was then left to stand at room temperature for 20 minutes. The cell was again washed twice by using the KRH buffer. The radioactivity remaining in each well was counted with a liquid scintillation counter to determine the binding amount.
The difference between the binding amount of the [^3H]-labeled Compound 16 (total binding amount) under conditions with no addition of any test compound and the binding amount of the [^3H]-labeled Compound 16 (non-specific binding amount) under conditions in the presence of the Compound 16 at 10 μmol/l was defined as specific binding amount.
According to the method described in Example 5, a substance having anti-diabetic activity was screened for, using the inhibitory activity of the binding between pancreatic β cells and [^3H]-labeled Compound 16. A tested substance was dissolved in dimethylsulfoxide and then added to give a final concentration of 1 μmol/l. The radioactivity with addition of the unlabeled Compound 16 was defined as the non-specific binding amount and the radioactivity without addition of the unlabeled Compound 16 was defined as the total binding amount, and then the individual specific binding amounts were calculated by the method described in Example 6. Using the following formula, the binding inhibition ratio was determined. [formula]

p31 protein = molecular target: T1, p31 protein (Mus musculus, UniProt Q99LB2); assay: Inhibition of binding of p31 protein from MIN6 solubilized membrane fraction to Compound 155-immobilized particle (SDS-PAGE); settings: 500 μmol/l tested substance, band on SDS-PAGE
T1 construct: endogenous in cells; host or cells: MIN6 (murine pancreatic beta cell line), digitonin-solubilized membrane fraction
T1 sequence (Q99LB2 20-279 limits assumed): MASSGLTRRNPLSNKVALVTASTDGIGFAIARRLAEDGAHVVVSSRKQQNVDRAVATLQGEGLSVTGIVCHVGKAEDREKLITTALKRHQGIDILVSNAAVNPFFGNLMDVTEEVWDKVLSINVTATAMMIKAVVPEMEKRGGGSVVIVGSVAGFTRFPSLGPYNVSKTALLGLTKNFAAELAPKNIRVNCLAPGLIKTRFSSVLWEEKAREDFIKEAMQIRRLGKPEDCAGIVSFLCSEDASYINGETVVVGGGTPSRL
Experimental: The solubilized membrane fraction of MIN6 as prepared in Example 12 was 10-fold diluted with the buffer B. The compound represented by Compound No. 16 (hereinafter referred to as “Compound 16”) at 500 μmol/l was added to 1 ml of the resulting dilution and gently stirred at 4° C. for 2 hours. As a control, the solubilized membrane fraction of MIN6 without addition of the Compound 16 was 10-fold diluted with buffer C [20 mmol/l HEPES, pH 7.4, 2 mmol/l EDTA, 150 mmol/l NaCl, 1% digitonin, 1 mmol/l PMSF, 1 μg/ml aprotinin], and 1 ml of the resulting dilution was gently stirred at 4° C. for 2 hours. Then, a particle immobilizing a compound represented by Compound No. 155 (hereinafter referred to as “Compound 155-immobilized particle”) as prepared in Example 8 was added to the solubilized membrane fraction solution with addition of the Compound 16 and the solubilized membrane fraction solution without addition of any tested substance and gently stirred at 4° C. for 30 minutes. Subsequently, the resulting solutions were centrifuged (12,000 rpm, one minute, 4° C.) to precipitate the particle to thereby remove the supernatants. Then, 750 μl of the buffer C was added and stirred for 3 seconds, followed by centrifugation (12,000 rpm, one minute, 4° C.), to precipitate the particle to remove the supernatant. Then, 750 μl of buffer D [20 mmol/l HEPES, pH 7.4, 2 mmol/l EDTA] was added and stirred for 3 seconds, followed by centrifugation (12,000 rpm, one minute, 4° C.), to precipitate the particle to remove the supernatant. Subsequently, 30 μl of an SDS-polyacrylamide gel electrophoresis sample buffer containing β-mercaptoethanol was added to solubilize the protein binding to Compound 155-immobilized particle, followed by SDS-polyacrylamide gel electrophoresis. Through the purification from the cell extract solution by adding Compound 16 via Compound 155-immobilized particle, p31 protein in which its specific binding to Compound 155-immobilized particle was inhibited by the compound represented by Compound No. 16 was found. […]

MIN6 cell = assay: Insulin secretion test using MIN6 cell; type: cell-based, murine; settings: MIN6 cell; glucose 14.5 mmol/l or 8.4 mmol/l
Experimental: Culturing MIN6 cell and testing insulin secretion using MIN6 cell were carried out according to the method described in Diabetorogia, 36, 1139-1145 (1993).
In other words, the influence of a compound on the insulin secretion activity in the presence of 14.5 mmol/l glucose was assessed by assaying the amount of insulin in the cell culture supernatant collected as follows.
The MIN6 cell cultured in a 24-well plate was washed twice with 1 ml of buffer A [119 mmol/l NaCl, 4.74 mmol/l KCl, 2.54 mmol/l CaCl2, 1.19 mmol/l MgSO4, 1.19 mmol/l KH2PO4, 10 mmol/l 2-[4-(2-hydroxylethyl)-1-piperadinyl]ethanesulfonic acid, 0.1% BSA, pH 7.3] containing 2 mmol/l glucose. Subsequently, the resulting cell was incubated in 1 ml of the buffer A containing 2 mmol/l glucose at 37° C. for 45 minutes. The culture supernatant was exchanged with the buffer A (1 ml) containing test compounds of various concentrations and 8.4 mmol/l glucose and incubated at 37° C. for 45 minutes to collect the culture supernatant.
Antibody-reactive insulin secreted in the culture supernatant was assayed by radioimmunoassay [Methods in Investigative and Diagnostic Endocrinology, Vol. 2A, 2B, North-Holland Publishing Co., Amsterdam (1973)] after the culture supernatant was diluted with phosphate buffer containing 1% BSA, 0.1% Tween 20, 0.12% EDTA 2Na, and 0.1% sodium azide. A standard curve was prepared by using human insulin as the standard substance, and individual insulin values were calculated on the basis of the curve.

Q: `CCCN1C(=O)N2CC(Cc3ccccc3)N=C2c2[nH]c(C3CCCC3)nc21` (single isomer, unassigned) [compound 17] was tested. Which “Binding inhibitory activity (%)” value [1] did it give?
A: 5.4%

Q: And the “inhibition of the binding of the p31 protein to the Compound 155-immobilized particle” value (p31 protein)?
A: cannot inhibit the binding of the p31 protein

Q: What about the “Insulin secretory activity (%)” value (MIN6 cell) of the same compound?
A: 15.8%
